One data set deals with GLP1R (Homo sapiens, UniProt P43220). As to the kind of experiment: hGLP1R potency, cAMP accumulation in CHO-K1 cells stably overexpressing hGLP1R. More on the design: host or cells: CHO-K1. The conditions noted are these: for EC50: cAMP accumulation, CHO-K1 cells overexpressing hGLP1R, read-out: hGLP1R pEC50 (converted); for SCTR EC50/GLP1R EC50 ratio: selectivity for hGLP1R over hSCTR, cAMP accumulation in CHO-K1 cells. Format: cell-based. The essentials:
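2000 cells/well, DPBS + 0.05% casein + 0.5 mM IBMX; 30 min RT stimulation; HTRF cAMP detection after 1 h. Purified: 3-fold ×11, n=2; crude: 10-fold ×5, n=1. EC50 by variable-slope fit.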

A short description of data set [1]: Fibril formation of crude library peptides (Thioflavin T). The format is physicochemical. Also noted: key: average ThT fluorescence emission at 480 nm (ex 450 nm), raw units. The settings on record: Physical stability of peptides. The essentials:
(§1)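 Turbidity is the absorbance at 600 nm, taken before heating. Fibril signal is the mean ThT emission at 480 nm (450 nm excitation), read every 10 min over 72 h at 40° C with 700 rpm shaking between reads. Peptides at 267 μM, pH 4.0 acetate or pH 7.0 phosphate buffer (50 mM), 4 μM ThT final.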

Data set [2] in a line: Turbidity of crude library peptides (absorbance at 600 nm). Format: physicochemical. The conditions noted are these: Physical stability of peptides. The gist of the method:
as §1

A further data set concerns the target SCTR (Homo sapiens, UniProt P47872). Nature of the data set: hSCTR potency, cAMP accumulation in CHO-K1 cells stably overexpressing hSCTR. Format: cell-based. More on the design: alternatively Euroscreen ES-712-AF; FAST-0161L; host or cells: CHO-K1. The conditions noted are these: cAMP accumulation, CHO-K1 cells overexpressing hSCTR; read-out: hSCTR pEC50 (converted). The gist of the method: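 Thawed CHO-K1 cells carrying stable hSCTR are plated into casein/IBMX buffer (0.05%, 0.5 mM), dosed immediately for 30 min at room temperature, then cAMP is detected by TR-FRET. Purified peptides run as 11 three-fold dilutions in duplicate, and curves are fitted with variable slope.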

Numbered stars: 1 amine (or outer) side, 2 acyl side, 3 side chain; on linkers, the order of the positions; unused ones are H or OH. Square brackets hold non-standard residues; d marks the D form. Side chains are listed from the residue outwards. Peptide text beside a SMILES is read from it. * marks the point of attachment. C20 diacid = O=C(O)CCCCCCCCCCCCCCCCCCC(=O)*; γGlu = O=C(O)[C@H](CCC(=O)[*:2])N[*:1]; AEEA = NCCOCCOCC(=O)O; Aib = CC(C)(N)C(=O)O

SCTR, sequence (P47872 23-440): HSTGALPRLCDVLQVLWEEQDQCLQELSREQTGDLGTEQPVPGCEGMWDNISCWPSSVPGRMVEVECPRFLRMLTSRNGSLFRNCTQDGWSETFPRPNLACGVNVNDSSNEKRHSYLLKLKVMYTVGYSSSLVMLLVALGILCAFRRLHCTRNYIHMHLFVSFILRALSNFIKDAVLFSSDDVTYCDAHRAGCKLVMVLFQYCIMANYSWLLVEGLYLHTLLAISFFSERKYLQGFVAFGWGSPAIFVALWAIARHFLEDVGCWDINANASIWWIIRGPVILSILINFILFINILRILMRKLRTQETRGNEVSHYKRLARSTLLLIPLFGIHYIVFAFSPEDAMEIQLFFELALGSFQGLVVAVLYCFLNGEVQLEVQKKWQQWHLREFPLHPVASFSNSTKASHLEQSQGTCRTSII
GLP1R, sequence (P43220 24-463): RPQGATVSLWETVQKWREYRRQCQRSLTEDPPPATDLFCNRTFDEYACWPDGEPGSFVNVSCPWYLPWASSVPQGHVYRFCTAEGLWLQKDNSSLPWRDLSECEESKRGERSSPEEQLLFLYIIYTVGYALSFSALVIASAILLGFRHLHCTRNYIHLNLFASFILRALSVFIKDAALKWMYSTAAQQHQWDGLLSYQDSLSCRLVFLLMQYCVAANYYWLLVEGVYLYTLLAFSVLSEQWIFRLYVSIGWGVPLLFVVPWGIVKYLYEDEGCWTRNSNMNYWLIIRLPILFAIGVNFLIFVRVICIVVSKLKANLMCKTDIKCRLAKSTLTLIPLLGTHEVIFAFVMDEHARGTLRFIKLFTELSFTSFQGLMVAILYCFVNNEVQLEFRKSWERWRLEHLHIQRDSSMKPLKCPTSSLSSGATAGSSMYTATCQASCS

With `CC[C@H](C)[C@H](NC(=O)[C@H](Cc1ccccc1)NC(=O)[C@H](CCCNC(=N)N)NC(=O)[C@H](CCC(N)=O)NC(=O)[C@H](CC(C)C)NC(=O)[C@H](C)NC(=O)[C@H](C)NC(=O)CNC(=O)[C@H](CCC(=O)O)NC(=O)[C@H](CC(C)C)NC(=O)[C@H](CC(C)C)NC(=O)[C@H](CCC(=O)O)NC(=O)[C@H](CO)NC(=O)[C@@H](NC(=O)[C@H](CC(=O)O)NC(=O)[C@H](CO)NC(=O)[C@@H](NC(=O)[C@H](Cc1ccccc1)NC(=O)[C@@H](NC(=O)CNC(=O)[C@H](CCC(=O)O)NC(=O)C(C)(C)NC(=O)[C@@H](N)Cc1c[nH]cn1)[C@@H](C)O)[C@@H](C)O)[C@@H](C)CC)C(=O)N[C@@H](CCC(N)=O)C(=O)N[C@@H](Cc1c[nH]c2ccccc12)C(=O)N[C@@H](CC(C)C)C(=O)N[C@H](C(N)=O)C(C)C` [compound 119] (H-H[Aib]EGTFTSDISELLEGAALQRFIQWLV-NH2), at GLP1R, the EC50 is 0.0251 nM and the “SCTR EC50/GLP1R EC50 ratio” value is 2127. Also, in data set [1], the Fibril formation was 13897. Further, the “Turbidity (pH 7)” value in data set [2] worked out at 0.12. In addition, the EC50 at SCTR was 50.1 nM.
Turning to `CC[C@H](C)[C@H](NC(=O)[C@H](CC(=O)O)NC(=O)[C@H](CO)NC(=O)[C@@H](NC(=O)[C@H](Cc1ccccc1)NC(=O)[C@@H](NC(=O)CNC(=O)[C@H](CCC(=O)O)NC(=O)C(C)(C)NC(=O)[C@@H](N)Cc1c[nH]cn1)[C@@H](C)O)[C@@H](C)O)C(=O)N[C@@H](CO)C(=O)NCC(=O)N[C@@H](CC(C)C)C(=O)N[C@@H](CC(C)C)C(=O)N[C@@H](CCC(=O)O)C(=O)NCC(=O)N[C@@H](C)C(=O)N[C@@H](C)C(=O)N[C@@H](CC(C)C)C(=O)N[C@@H](CCC(N)=O)C(=O)N[C@@H](CCCNC(=N)N)C(=O)N[C@@H](Cc1ccccc1)C(=O)N[C@H](C(=O)N[C@@H](CCC(N)=O)C(=O)N[C@@H](Cc1c[nH]c2ccccc12)C(=O)N[C@@H](CC(C)C)C(=O)N[C@H](C(N)=O)C(C)C)[C@@H](C)CC` [compound 120] (H-H[Aib]EGTFTSDISGLLEGAALQRFIQWLV-NH2), on GLP1R, the EC50 was 0.0501 nM and the “SCTR EC50/GLP1R EC50 ratio” value was determined as 3717. Besides, the Fibril formation in data set [1] is 4449. Further, the “Turbidity (pH 7)” value in data set [2] was determined as 0.23. Further, the EC50 on SCTR is 200 nM.
On to `CC(C)C[C@H](NC(=O)[C@H](Cc1ccccc1)NC(=O)[C@H](CCCNC(=N)N)NC(=O)[C@H](CCC(N)=O)NC(=O)[C@H](CC(C)C)NC(=O)C(C)(C)NC(=O)[C@H](C)NC(=O)[C@H](CCC(=O)O)NC(=O)[C@H](CCC(=O)O)NC(=O)[C@H](CCCCNC(=O)COCCOCCNC(=O)COCCOCCNC(=O)CC[C@H](NC(=O)CCCCCCCCCCCCCCCCCCC(=O)O)C(=O)O)NC(=O)[C@H](CC(C)C)NC(=O)[C@H](Cc1ccc(O)cc1)NC(=O)[C@H](CO)NC(=O)[C@@H]1CCCN1C(=O)[C@H](CC(=O)O)NC(=O)[C@H](CO)NC(=O)[C@@H](NC(=O)[C@H](Cc1ccccc1)NC(=O)[C@@H](NC(=O)CNC(=O)[C@H](CCC(=O)O)NC(=O)C(C)(C)NC(=O)[C@@H](N)Cc1c[nH]cn1)[C@@H](C)O)[C@@H](C)O)C(=O)N[C@@H](CCC(=O)O)C(=O)N[C@@H](Cc1c[nH]cn1)C(=O)N[C@@H](CC(C)C)C(=O)N[C@H](C(N)=O)C(C)C` [compound 121] (H-H[Aib]EGTFTSDPSYLK([AEEA-AEEA-γGlu-C20 diacid])EEA[Aib]LQRFLEHLV-NH2), for which, on GLP1R, the EC50 was 2.51 nM and the “SCTR EC50/GLP1R EC50 ratio” value is 17452. Besides, in data set [1], the Fibril formation is on record as 24767. For the same compound, in data set [2], the “Turbidity (pH 7)” value came out at 0.08. In addition, the EC50 at SCTR is 39800 nM.
The matching figures for `CC[C@H](C)[C@H](NC(=O)[C@H](Cc1ccccc1)NC(=O)[C@H](CCCNC(=N)N)NC(=O)[C@H](CCC(N)=O)NC(=O)[C@H](CC(C)C)NC(=O)[C@H](C)NC(=O)[C@H](C)NC(=O)CNC(=O)[C@H](CCC(=O)O)NC(=O)[C@H](CC(C)C)NC(=O)[C@H](CC(C)C)NC(=O)[C@H](CCC(=O)O)NC(=O)[C@H](CO)NC(=O)[C@@H]1CCCN1C(=O)[C@H](CC(=O)O)NC(=O)[C@H](CO)NC(=O)[C@@H](NC(=O)[C@H](Cc1ccccc1)NC(=O)[C@@H](NC(=O)CNC(=O)[C@H](CCC(=O)O)NC(=O)C(C)(C)NC(=O)[C@@H](N)Cc1c[nH]cn1)[C@@H](C)O)[C@@H](C)O)C(=O)N[C@@H](CCC(N)=O)C(=O)N[C@@H](Cc1c[nH]c2ccccc12)C(=O)N[C@@H](CC(C)C)C(=O)N[C@H](C(N)=O)C(C)C` [compound 122] (H-H[Aib]EGTFTSDPSELLEGAALQRFIQWLV-NH2): 6.31 nM, 804, 3560, 0.08 and 5010 nM.
On to `CC[C@H](C)[C@H](NC(=O)[C@H](Cc1ccccc1)NC(=O)[C@H](CCCNC(=N)N)NC(=O)[C@H](CCC(N)=O)NC(=O)[C@H](CC(C)C)NC(=O)[C@H](C)NC(=O)[C@H](C)NC(=O)CNC(=O)[C@H](CCC(=O)O)NC(=O)[C@H](CC(C)C)NC(=O)[C@H](CC(C)C)NC(=O)CNC(=O)[C@H](CO)NC(=O)[C@@H]1CCCN1C(=O)[C@H](CC(=O)O)NC(=O)[C@H](CO)NC(=O)[C@@H](NC(=O)[C@H](Cc1ccccc1)NC(=O)[C@@H](NC(=O)CNC(=O)[C@H](CCC(=O)O)NC(=O)C(C)(C)NC(=O)[C@@H](N)Cc1c[nH]cn1)[C@@H](C)O)[C@@H](C)O)C(=O)N[C@@H](CCC(N)=O)C(=O)N[C@@H](Cc1c[nH]c2ccccc12)C(=O)N[C@@H](CC(C)C)C(=O)N[C@H](C(N)=O)C(C)C` [compound 123] (H-H[Aib]EGTFTSDPSGLLEGAALQRFIQWLV-NH2), for which, on GLP1R, the EC50 is 10 nM and the “SCTR EC50/GLP1R EC50 ratio” value came to 671. The Fibril formation in data set [1] amounted to 3764. Besides, in data set [2], the “Turbidity (pH 7)” value was determined as 0.11. Moreover, the EC50 on SCTR is 6310 nM.
With `CC[C@H](C)[C@H](NC(=O)[C@H](Cc1ccccc1)NC(=O)[C@H](CCCNC(=N)N)NC(=O)[C@H](CCC(N)=O)NC(=O)[C@H](CC(C)C)NC(=O)[C@H](C)NC(=O)[C@H](C)NC(=O)CNC(=O)[C@H](CCC(=O)O)NC(=O)[C@H](CC(C)C)NC(=O)[C@H](CC(C)C)NC(=O)[C@H](CCCNC(=N)N)NC(=O)[C@H](CO)NC(=O)[C@@H]1CCCN1C(=O)[C@H](CC(=O)O)NC(=O)[C@H](CO)NC(=O)[C@@H](NC(=O)[C@H](Cc1ccccc1)NC(=O)[C@@H](NC(=O)CNC(=O)[C@H](CCC(=O)O)NC(=O)C(C)(C)NC(=O)[C@@H](N)Cc1c[nH]cn1)[C@@H](C)O)[C@@H](C)O)C(=O)N[C@@H](CCC(N)=O)C(=O)N[C@@H](Cc1c[nH]c2ccccc12)C(=O)N[C@@H](CC(C)C)C(=O)N[C@H](C(N)=O)C(C)C` [compound 124] (H-H[Aib]EGTFTSDPSRLLEGAALQRFIQWLV-NH2), the EC50 is 2.51 nM on GLP1R and 5010 nM at SCTR. For the same compound, at GLP1R, the “SCTR EC50/GLP1R EC50 ratio” value turned out to be 2086. The Fibril formation in data set [1] was 1370. Also, in data set [2], the “Turbidity (pH 7)” value is listed as 0.12.

For the origin of these results see patent US20260201008A1, “SECRETIN-DERIVED GLP1R SELECTIVE AGONISTS” (GUBRA A/S, priority 2023, published 2026).
